pIC50: −log10 of the molar value. Where only a bound is given, the exact number is not on record here.

The test system of one data set is LNCaP. Description: Cytotoxicity against human LNCaP cells assessed as reduction in cell proliferation by MTT assay. The class given is functional, cell-based. (Formazan colour is commonly taken as a measure of viable cells.)
A short description of data set [1]: Cytotoxicity against human hormone nonresponsive and Castration-resistant 22Rv1 cells assessed as reduction in cell proliferation by MTT assay. It counts as functional, cell-based, Castration-resistant 22Rv1 cell.
The test system of another data set is DU-145. In words: Cytotoxicity against human hormone nonresponsive DU-145 cells assessed as reduction in cell proliferation by MTT assay. It counts as functional, cell-based.
In a further data set the test system is PC-3. Description: Cytotoxicity against human hormone nonresponsive PC-3 cells assessed as reduction in cell proliferation by MTT assay. The class given is functional, cell-based.
Data set [2] is described as follows: Cytotoxicity against human HFF cells assessed as reduction in cell proliferation by MTT assay. The class given is toxicity, cell-based.

`CC(=O)OCC1=C(C)C[C@H]([C@@H](C)[C@H]2CC[C@H]3[C@@H]4C[C@H]5O[C@]56[C@@H](O)C=CC(=O)[C@]6(C)[C@H]4CC[C@]23C)OC1=O`: the pIC50 was 5.72 in the data set on LNCaP; 5.85 in data set [1]; 6.10 with DU-145; 6.52 with PC-3; 5.72 in data set [2].
For the compound `C=C1C[C@@H]([C@@H](C)[C@H]2CC[C@H]3[C@@H]4C[C@H]5O[C@]56[C@@H](O)C=CC(=O)[C@]6(C)[C@H]4CC[C@]23C)OC(=O)[C@@]12CCC1=C(C[C@@H]([C@@H](C)[C@H]3CC[C@H]4[C@@H]5C[C@H]6O[C@]67[C@@H](O)C=CC(=O)[C@]7(C)[C@H]5CC[C@]34C)OC1=O)C2`, the pIC50 in the data set with LNCaP is 6.05; in data set [1], 5.96; with DU-145, 6.00; in the data set on PC-3, 6.70; in data set [2], 6.22.
On the same counts, the results for `C=C1C(=O)O[C@@H]([C@@H](C)[C@H]2CC[C@H]3[C@@H]4C[C@H]5O[C@]56[C@@H](OC(C)=O)C=CC(=O)[C@]6(C)[C@H]4CC[C@]23C)C=C1C` are 5.80, 5.82, 5.60, 6.40 and 5.70.
Turning to `C=C1C[C@@H]([C@@H](C)[C@H]2CC[C@H]3[C@@H]4C[C@H]5O[C@]56[C@@H](OC(C)=O)C=CC(=O)[C@]6(C)[C@H]4CC[C@]23C)OC(=O)[C@@]12CCC1=C(C[C@@H]([C@@H](C)[C@H]3CC[C@H]4[C@@H]5C[C@H]6O[C@]67[C@@H](OC(C)=O)C=CC(=O)[C@]7(C)[C@H]5CC[C@]34C)OC1=O)C2`, the pIC50 is less than 5.30 in the data set on LNCaP; 5.59 in data set [1]; 5.43 in the data set with DU-145; 6.00 in the data set on PC-3; 5.60 in data set [2].
On the same counts, the results for `C=C1C[C@@H]([C@@H](C)[C@H]2CC[C@H]3[C@@H]4C[C@H]5O[C@]56[C@@H](OC(=O)c5ccc([N+](=O)[O-])cc5)C=CC(=O)[C@]6(C)[C@H]4CC[C@]23C)OC(=O)[C@@]12CCC1=C(C[C@@H]([C@@H](C)[C@H]3CC[C@H]4[C@@H]5C[C@H]6O[C@]67[C@@H](OC(=O)c6ccc([N+](=O)[O-])cc6)C=CC(=O)[C@]7(C)[C@H]5CC[C@]34C)OC1=O)C2` are 5.64, 5.96, 5.96, 6.70 and 6.30.
The corresponding values for `C=C1C(=O)O[C@@H]([C@@H](C)[C@H]2CC[C@H]3[C@@H]4C[C@H]5O[C@]56[C@@H](O)C=CC(=O)[C@]6(C)[C@H]4CC[C@]23C)C=C1C` are less than 5.30, less than 5.30, less than 5.30, 5.66 and less than 5.30.
On the same counts, the results for `COc1cccc2c1C(=O)c1c(O)c3c(c(O)c1C2=O)C[C@@](O)(C(=O)CO)C[C@@H]3O[C@H]1C[C@H](N)[C@H](O)[C@H](C)O1` [DOXORUBICIN] are 7.00, 7.40, 7.00, 6.22 and 5.85.

For orientation: pIC50 means the negative decadic logarithm of the IC50, by convention in mol/L.

Source of the values: ChEMBL document CHEMBL5344447, “A Homodimer of Withaferin A Formed by Base-Promoted Elimination of Acetic Acid from 27-O-Acetylwithaferin A Followed by a Diels-Alder Reaction” (J Nat Prod, 2024).
